From patent US7759373B2, “Large conductance calcium-activated K channel opener” (Mitsubishi Tanabe Pharma Corporation, priority 2001, dated 2010)
Structures can show the parent of a compound that is named as a salt.

| melting point | Structure (SMILES) |
| --- | --- |
| 170 to 172 °C | CCCc1nc(-c2ccc(N(C)C)cc2)[nH]c1-c1cccs1 (as salt: HCl) [Preparation example 2] |
| 175 to 180 °C | CCCc1nc(-c2ccc(NC)cc2)[nH]c1-c1cccs1 (as salt: HCl) [Preparation example 3] |
| 234 to 237 °C | CCCc1nc(C2CCC(=O)N2)[nH]c1-c1cccs1 (stereo not drawn) (as salt: HCl) [Preparation example 4] |
| 275 to 280 °C | CCCc1nc(-c2ccncc2)[nH]c1-c1cccs1 (as salt: HCl) [Preparation example 6] |
| 183 to 185 °C | CCCc1nc(-c2cncc(C)c2)[nH]c1-c1cccs1 (as salt: HCl) [Preparation example 7] |
| 251 to 254 °C | CCCc1nc(-c2ccc(C#N)cc2)[nH]c1-c1cccs1 (as salt: HCl) [Preparation example 8] |
| 278 to 281 °C | CCCc1nc(-c2ccc([N+](=O)[O-])cc2)[nH]c1-c1cccs1 (as salt: HCl) [Preparation example 9] |
| 221 to 223 °C | CCc1nc(-c2ccccc2Cl)[nH]c1-c1cccnc1 (as salt: HCl) [Preparation example 12] |
| 223 to 224 °C | CCc1nc(-c2cccc(Cl)c2)[nH]c1-c1cccnc1 (as salt: HCl) [Preparation example 13] |
| 250 to 253 °C | CCc1nc(-c2ccccc2C(N)=O)[nH]c1-c1cccnc1 (as salt: HCl) [Preparation example 18] |
| 214 to 216 °C | CCc1nc(-c2csc(Br)c2)[nH]c1-c1cccnc1 (as salt: HCl) [Preparation example 19] |
| 215 to 217 °C | CCc1nc(-c2cccs2)[nH]c1-c1cccnc1 (as salt: HCl) [Preparation example 20] |
| 192 to 195 °C | Fc1ccc(-c2ncc(-c3cccnc3)[nH]2)cc1 (as salt: HCl) [Preparation example 22] |
| 325 to 328 °C | N#Cc1ccc(-c2ncc(-c3cccnc3)[nH]2)cc1 (as salt: HCl) [Preparation example 23] |
| 269 to 273 °C | Cc1ccc(-c2ncc(-c3cccnc3)[nH]2)cn1 (as salt: HCl) [Preparation example 26] |
| 285 to 288 °C | CCc1nc(-c2ccc(C#N)cc2)[nH]c1-c1ccccc1 (as salt: HCl) [Preparation example 27] |
| 248 to 251 °C | CCc1nc(-c2ccc(C)nc2)[nH]c1-c1ccccc1 (as salt: HCl) [Preparation example 28] |
| 202 to 204 °C | CCCc1nc(-c2cccc(Cl)c2)[nH]c1-c1ccccc1 (as salt: HCl) [Preparation example 29] |
| 192 to 193 °C | CCCc1nc(-c2cccc(F)c2)[nH]c1-c1ccccc1 (as salt: HCl) [Preparation example 30] |
| 258 to 260 °C | CCCc1nc(-c2ccc(C#N)cc2)[nH]c1-c1ccccc1 (as salt: HCl) [Preparation example 31] |
| 189 to 190 °C | CCCc1nc(-c2ccc3ccccc3c2)[nH]c1-c1ccccc1 (as salt: HCl) [Preparation example 32] |
| 215 to 217 °C | CCCc1nc(-c2ccsc2)[nH]c1-c1ccccc1 (as salt: HCl) [Preparation example 33] |
| 194 to 196 °C | CCCc1nc(-c2csc(Cl)c2)[nH]c1-c1ccccc1 (as salt: HCl) [Preparation example 34] |
| 220 to 222 °C | CCCc1nc(-c2ccc[nH]2)[nH]c1-c1ccccc1 (as salt: HCl) [Preparation example 35] |

| melting point | Structure (SMILES) |
| --- | --- |
| 185 to 188 °C | CCCc1nc(-c2cc3ccccc3o2)[nH]c1-c1ccccc1 (as salt: HCl) [Preparation example 38] |
| 233 to 236 °C | CCCc1nc(-c2ccccc2[N+](=O)[O-])[nH]c1-c1ccccc1 (as salt: HCl) [Preparation example 39] |
| 188 to 190 °C | CCCc1nc(-c2cc(Cl)cs2)[nH]c1-c1ccccc1 (as salt: HCl) [Preparation example 40] |
| 250 to 255 °C | Fc1cccc(-c2ncc(-c3ccccc3)[nH]2)c1 (as salt: HCl) [Preparation example 41] |
| > 300 °C | N#Cc1ccc(-c2ncc(-c3ccccc3)[nH]2)cc1 (as salt: HCl) [Preparation example 42] |
| 260 to 262 °C | CCc1nc(-c2ccc(F)cc2)[nH]c1-c1ccc(C)nc1 (as salt: HCl) [Preparation example 47] |
| 241 to 243 °C | CCc1nc(-c2ccc(F)cc2)[nH]c1-c1cnccn1 (as salt: HCl) [Preparation example 49] |
| 190 to 192 °C | CCc1nc(-c2ccc(F)cc2)[nH]c1-c1ncccn1 (as salt: HCl) [Preparation example 50] |
| 215 to 218 °C | CCc1nc(-c2ccc(F)cc2)[nH]c1-c1nccs1 (as salt: HCl) [Preparation example 51] |
| 267 to 269 °C | CCc1nc(-c2ccc(F)cc2)[nH]c1-c1cscn1 (as salt: HCl) [Preparation example 52] |
| 198 to 201 °C | Cc1nc(-c2csc(Cl)c2)[nH]c1-c1cccnc1 (as salt: HCl) [Preparation example 54] |
| 205 to 207 °C | CCc1nc(-c2csc(Cl)c2)[nH]c1-c1cccnc1 (as salt: HCl) [Preparation example 55] |
| 178 to 180 °C | CCCc1nc(-c2ccc(F)cc2)[nH]c1Br (as salt: HCl) [Preparation example 79] |
| 247 to 251 °C | CCc1nc(-c2ccc(C)nc2)[nH]c1-c1cncs1 (as salt: HCl) [Preparation example 83] |
| 200 to 203 °C (dec.) | CCc1nc(-c2ccc(F)cc2)[nH]c1-c1ccccc1OC (as salt: HCl) [Preparation example 84] |
| 287 to 289 °C | CCc1nc(-c2ccc(F)cc2)[nH]c1-c1cncnc1 (as salt: HCl) [Preparation example 85] |
| 254 to 256 °C | CCc1nc(-c2ccc(F)cc2)[nH]c1-c1cncs1 (as salt: HCl) [Preparation example 86] |
| 233 to 235 °C | CCCc1nc(-c2ccc(F)cc2)[nH]c1-c1ccc(F)cc1 (as salt: HCl) [Preparation example 87] |
| 224 to 226 °C | CCCc1nc(-c2ccc(F)cc2)[nH]c1-c1ccccc1 (as salt: HCl) [Preparation example 88] |
| 174 to 176 °C | CCCc1nc(-c2ccc(F)cc2)[nH]c1-c1ccc(SC)cc1 (as salt: HCl) [Preparation example 89] |
| 220 to 222 °C | CCCc1nc(-c2ccc(F)cc2)[nH]c1-c1ccc([N+](=O)[O-])cc1 (as salt: HCl) [Preparation example 91] |
| 262 to 264 °C | CCCc1nc(-c2ccc(F)cc2)[nH]c1-c1cc(Cl)ccc1O (as salt: HCl) [Preparation example 92] |
| 120 to 122 °C | CCCc1nc(-c2ccc(F)cc2)[nH]c1-c1cccc(OC)c1 (as salt: HCl) [Preparation example 96] |
| 228 to 230 °C | CCCc1nc(-c2ccc(F)cc2)[nH]c1-c1cccc(F)c1 (as salt: HCl) [Preparation example 99] |
